Reference: patent publication US20050079159A1, “In vivo bioreactors” (Massachusetts Instiute of Technology, priority 2001, published 2005)

System: periosteal explants
Assay: In vitro periosteal chondrogenesis, organ culture model in alginate gel suspension
Type: cell-based
Conditions: 10 ng/ml; for Chondrogenesis (H & E; Safranin-O): first two weeks
Experimental: A further in vitro study of periosteal chondrogenesis has been performed to evaluate an organ culture model using an alginate gel suspension. Briefly, periosteal explants of approximate dimensions 3×3 mm were cultured in an alginate gel suspension and supplemented with either TGF-β1, b-FGF, a combination of the two, or in the absence of growth factors. b-FGF and TGF-β1 were administered at a concentration of 10 ng/ml every two days at each media change for the first week and first two weeks of in vitro culture respectively.
Additionally the cultures were supplemented daily with 50 μg/ml ascorbic acid for the first four weeks of in vitro culture. Results from histological analysis (H & E; and Safranin-O staining) of the explants performed at 1, 3, 6 and 8 week timepoints, were similar to those from the organ culture model utilizing the agarose gel (data not shown). Namely, after a period of 1 week in vitro culture, none of the explants stained positive for glycosaminoglycans using Safranin-O staining. Significant neo-chondrogenesis from the periosteum was not observed for explants cultured in the absence of added growth factors or supplemented with b-FGF alone over the period of 8 weeks. […] Safranin-O stains of typical periosteal explants after 1, 3, 6 and 8 weeks in vitro culture when b-FGF and TGF-β1 were administered for the first week and first two weeks of in vitro culture were observed.

Substance | Chondrogenesis (H & E; Safranin-O) (after 3 weeks in vitro culture) | Chondrogenesis (H & E; Safranin-O) (after 8 weeks in vitro culture) | Significant neo-chondrogenesis from the periosteum (H & E; Safranin-O) (over the period of 8 weeks in vitro culture)
TGF-β1: transforming growth factor | apparent | most pronounced | –
b-FGF: basic fibroblast growth factor | – | – | not observed
